Laboratory results from the kinase profiling compilation of Christmann-Franck et al. (2016).

Tests used:
Test in all cases: radiometric filter-binding kinase assay, Kinase HotSpot
Conditions in all cases: compound 0.5 µM; ATP 10 µM
LIMK1 (human) = LIMK1 (human) (UniProt P53667)
TXK (human) = TXK (human) (UniProt P42681)
INSR (human) = INSR (human) (UniProt P06213)
BMX (human) = BMX (human) (UniProt P51813)
CSNK2A1 (human) = CSNK2A1 (human) (UniProt P68400)
PRKCE (human) = PRKCE (human) (UniProt Q02156)
FGFR1 (human) = FGFR1 (human) (UniProt P11362)
GSK3A (human) = GSK3A (human) (UniProt P49840)
ITK (human) = ITK (human) (UniProt Q08881)
BRSK2 (human) = BRSK2 (human) (UniProt Q8IWQ3)
PRKACA (human) = PRKACA (human) (UniProt P17612)
CDK2 CCNE1 (human) = CDK2 CCNE1 (human) (UniProt P24941+P24864)
PHKG1 (human) = PHKG1 (human) (UniProt Q16816)
MAP2K2 (human) = MAP2K2 (human) (UniProt P36507)
MAP2K2 (human), sequence (P36507 whole entry, looked up): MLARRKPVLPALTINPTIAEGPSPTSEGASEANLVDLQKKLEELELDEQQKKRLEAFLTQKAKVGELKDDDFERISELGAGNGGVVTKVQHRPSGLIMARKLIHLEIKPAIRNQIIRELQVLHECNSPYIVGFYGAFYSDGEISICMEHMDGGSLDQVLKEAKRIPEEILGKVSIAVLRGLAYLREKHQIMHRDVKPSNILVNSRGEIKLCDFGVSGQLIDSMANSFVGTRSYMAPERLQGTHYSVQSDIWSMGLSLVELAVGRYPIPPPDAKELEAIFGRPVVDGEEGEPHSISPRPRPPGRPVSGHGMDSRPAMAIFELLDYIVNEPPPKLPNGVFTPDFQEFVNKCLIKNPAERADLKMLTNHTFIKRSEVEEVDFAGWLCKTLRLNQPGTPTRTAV

MAPK10 (human) = MAPK10 (human) (UniProt P53779)
SRPK2 (human) = SRPK2 (human) (UniProt P78362)
SRPK2 (human), sequence (P78362 whole entry, looked up): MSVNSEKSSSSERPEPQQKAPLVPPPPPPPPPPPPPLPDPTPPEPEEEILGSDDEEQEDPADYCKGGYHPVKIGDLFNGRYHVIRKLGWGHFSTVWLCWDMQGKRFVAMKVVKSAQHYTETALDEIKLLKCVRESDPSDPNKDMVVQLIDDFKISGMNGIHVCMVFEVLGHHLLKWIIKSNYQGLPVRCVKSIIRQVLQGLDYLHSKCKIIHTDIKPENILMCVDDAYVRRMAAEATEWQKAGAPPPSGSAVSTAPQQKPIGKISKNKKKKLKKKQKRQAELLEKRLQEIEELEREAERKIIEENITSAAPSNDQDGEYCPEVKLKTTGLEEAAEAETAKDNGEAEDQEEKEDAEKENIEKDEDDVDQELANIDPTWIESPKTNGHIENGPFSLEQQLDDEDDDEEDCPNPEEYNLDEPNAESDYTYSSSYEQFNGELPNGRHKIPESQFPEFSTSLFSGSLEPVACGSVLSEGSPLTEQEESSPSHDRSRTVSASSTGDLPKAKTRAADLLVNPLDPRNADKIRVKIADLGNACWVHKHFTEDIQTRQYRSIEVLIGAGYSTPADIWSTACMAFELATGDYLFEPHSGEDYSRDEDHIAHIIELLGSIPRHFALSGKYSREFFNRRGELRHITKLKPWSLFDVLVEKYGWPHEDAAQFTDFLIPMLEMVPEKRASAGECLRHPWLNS

STK4 (human) = STK4 (human) (UniProt Q13043)
STK4 (human), sequence (Q13043 whole entry, looked up): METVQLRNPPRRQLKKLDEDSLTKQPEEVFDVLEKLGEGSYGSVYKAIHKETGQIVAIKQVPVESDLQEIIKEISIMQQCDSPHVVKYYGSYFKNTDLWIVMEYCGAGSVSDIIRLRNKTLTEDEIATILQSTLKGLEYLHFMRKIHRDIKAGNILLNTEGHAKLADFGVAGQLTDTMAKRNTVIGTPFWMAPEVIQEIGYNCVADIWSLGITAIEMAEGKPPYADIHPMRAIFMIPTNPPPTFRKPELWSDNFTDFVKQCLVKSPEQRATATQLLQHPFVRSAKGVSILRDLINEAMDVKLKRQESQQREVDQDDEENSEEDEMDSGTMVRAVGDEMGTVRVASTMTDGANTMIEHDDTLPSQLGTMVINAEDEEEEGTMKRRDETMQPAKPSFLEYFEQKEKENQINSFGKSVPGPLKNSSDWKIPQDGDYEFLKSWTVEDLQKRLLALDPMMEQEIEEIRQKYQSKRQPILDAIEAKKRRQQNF

NEK2 (human) = NEK2 (human) (UniProt P51955)
NEK2 (human), sequence (P51955 whole entry, looked up): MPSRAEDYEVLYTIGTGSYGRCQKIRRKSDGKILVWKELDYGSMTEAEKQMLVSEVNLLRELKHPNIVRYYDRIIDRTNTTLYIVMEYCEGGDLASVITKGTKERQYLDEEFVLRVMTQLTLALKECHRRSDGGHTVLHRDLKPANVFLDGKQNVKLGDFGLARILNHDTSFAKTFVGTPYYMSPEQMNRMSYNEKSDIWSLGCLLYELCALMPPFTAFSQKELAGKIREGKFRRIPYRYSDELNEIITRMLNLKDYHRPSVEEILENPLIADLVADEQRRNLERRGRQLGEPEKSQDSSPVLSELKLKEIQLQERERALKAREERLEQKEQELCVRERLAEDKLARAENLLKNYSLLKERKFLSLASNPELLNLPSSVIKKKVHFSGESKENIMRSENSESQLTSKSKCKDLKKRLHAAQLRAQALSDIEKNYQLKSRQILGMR

MAP4K5 (human) = MAP4K5 (human) (UniProt Q9Y4K4)
MAP4K5 (human), sequence (Q9Y4K4 whole entry, looked up): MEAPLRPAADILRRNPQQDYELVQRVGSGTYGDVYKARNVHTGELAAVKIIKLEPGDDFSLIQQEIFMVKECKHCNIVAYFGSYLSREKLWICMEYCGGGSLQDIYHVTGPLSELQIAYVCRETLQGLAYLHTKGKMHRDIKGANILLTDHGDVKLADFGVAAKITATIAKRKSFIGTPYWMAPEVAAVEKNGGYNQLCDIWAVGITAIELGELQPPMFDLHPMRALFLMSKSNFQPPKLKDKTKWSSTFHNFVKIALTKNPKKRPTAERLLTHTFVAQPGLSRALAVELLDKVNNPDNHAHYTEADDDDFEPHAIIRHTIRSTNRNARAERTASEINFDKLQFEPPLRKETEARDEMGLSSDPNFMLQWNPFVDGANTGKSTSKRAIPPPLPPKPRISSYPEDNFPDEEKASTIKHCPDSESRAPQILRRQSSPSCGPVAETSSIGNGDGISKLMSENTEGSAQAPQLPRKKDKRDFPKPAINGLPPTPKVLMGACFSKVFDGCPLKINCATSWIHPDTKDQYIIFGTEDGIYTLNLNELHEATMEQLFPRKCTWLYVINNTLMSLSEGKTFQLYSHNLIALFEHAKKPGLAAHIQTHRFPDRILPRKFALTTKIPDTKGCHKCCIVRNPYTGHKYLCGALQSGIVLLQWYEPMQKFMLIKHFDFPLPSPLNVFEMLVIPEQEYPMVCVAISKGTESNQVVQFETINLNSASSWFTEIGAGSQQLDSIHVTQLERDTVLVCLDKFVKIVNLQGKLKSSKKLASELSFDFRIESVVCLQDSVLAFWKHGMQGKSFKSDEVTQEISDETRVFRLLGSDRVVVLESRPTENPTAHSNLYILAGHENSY

WNK3 (human) = WNK3 (human) (UniProt Q9BYP7)
MARK1 (human) = MARK1 (human) (UniProt Q9P0L2)
NTRK2 (human) = NTRK2 (human) (UniProt Q16620)
[1] = system: SGK1 (human), O00141 [S422D]
SGK1 (human), O00141 [S422D], sequence (O00141 whole entry S422D, looked up): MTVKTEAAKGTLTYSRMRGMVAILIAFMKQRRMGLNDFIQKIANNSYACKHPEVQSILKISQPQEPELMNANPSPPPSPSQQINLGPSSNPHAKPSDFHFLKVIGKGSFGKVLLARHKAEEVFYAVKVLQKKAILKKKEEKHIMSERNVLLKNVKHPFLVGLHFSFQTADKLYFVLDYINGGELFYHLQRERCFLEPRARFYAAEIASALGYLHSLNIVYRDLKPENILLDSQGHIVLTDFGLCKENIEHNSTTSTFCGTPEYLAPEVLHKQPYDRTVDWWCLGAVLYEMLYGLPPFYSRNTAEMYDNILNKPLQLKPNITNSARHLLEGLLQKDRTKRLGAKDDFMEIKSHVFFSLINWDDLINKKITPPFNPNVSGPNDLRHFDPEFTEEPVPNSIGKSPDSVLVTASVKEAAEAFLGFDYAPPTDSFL

GSG2 (human) = GSG2 (human) (UniProt Q8TF76)
STK3 (human) = STK3 (human) (UniProt Q13188)
MAP2K1 (human) = MAP2K1 (human) (UniProt Q02750)
NTRK3 (human) = NTRK3 (human) (UniProt Q16288)
RPS6KA6 KD1 KD2 (human) = RPS6KA6 KD1 KD2 (human) (UniProt Q9UK32)
CSNK2A2 (human) = CSNK2A2 (human) (UniProt P19784)
DMPK (human) = DMPK (human) (UniProt Q09013)
CDK1 CCNA2 (human) = CDK1 CCNA2 (human) (UniProt P06493+P20248)
CDK1 CCNA2 (human), sequence (P06493 whole entry, looked up): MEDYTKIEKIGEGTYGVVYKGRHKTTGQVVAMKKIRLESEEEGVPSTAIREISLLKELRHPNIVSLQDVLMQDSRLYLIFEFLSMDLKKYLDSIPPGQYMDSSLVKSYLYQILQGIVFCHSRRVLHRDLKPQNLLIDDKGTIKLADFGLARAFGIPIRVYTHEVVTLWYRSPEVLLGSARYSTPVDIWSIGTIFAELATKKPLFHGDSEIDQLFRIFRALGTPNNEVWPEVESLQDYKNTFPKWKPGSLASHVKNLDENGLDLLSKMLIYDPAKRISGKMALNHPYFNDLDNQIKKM
CDK1 CCNA2 (human), sequence (P20248 whole entry, looked up): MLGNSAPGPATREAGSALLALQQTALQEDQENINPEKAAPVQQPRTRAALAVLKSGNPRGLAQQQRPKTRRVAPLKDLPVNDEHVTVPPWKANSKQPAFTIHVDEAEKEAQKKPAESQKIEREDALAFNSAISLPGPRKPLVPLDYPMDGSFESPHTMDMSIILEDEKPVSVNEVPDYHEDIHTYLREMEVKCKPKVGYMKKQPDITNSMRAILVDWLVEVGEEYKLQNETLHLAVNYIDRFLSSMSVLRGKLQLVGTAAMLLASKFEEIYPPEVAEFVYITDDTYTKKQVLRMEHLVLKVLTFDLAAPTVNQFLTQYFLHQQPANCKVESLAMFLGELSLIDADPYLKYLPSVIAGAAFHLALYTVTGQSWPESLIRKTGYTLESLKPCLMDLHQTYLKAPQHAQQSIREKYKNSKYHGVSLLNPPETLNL

MAP3K9 (human) = MAP3K9 (human) (UniProt P80192)
CDK7 CCNH MNAT1 (human) = CDK7 CCNH MNAT1 (human) (UniProt P50613+P51948+P51946)
EPHA1 (human) = EPHA1 (human) (UniProt P21709)
BLK (human) = BLK (human) (UniProt P51451)
DYRK3 (human) = DYRK3 (human) (UniProt O43781)
CSNK1G3 (human) = CSNK1G3 (human) (UniProt Q9Y6M4)
EPHA2 (human) = EPHA2 (human) (UniProt P29317)
RPS6KA4 KD2 (human) = RPS6KA4 KD2 (human) (UniProt O75676)
PTK2B (human) = PTK2B (human) (UniProt Q14289)
AURKC (human) = AURKC (human) (UniProt Q9UQB9)
AURKC (human), sequence (Q9UQB9 whole entry, looked up): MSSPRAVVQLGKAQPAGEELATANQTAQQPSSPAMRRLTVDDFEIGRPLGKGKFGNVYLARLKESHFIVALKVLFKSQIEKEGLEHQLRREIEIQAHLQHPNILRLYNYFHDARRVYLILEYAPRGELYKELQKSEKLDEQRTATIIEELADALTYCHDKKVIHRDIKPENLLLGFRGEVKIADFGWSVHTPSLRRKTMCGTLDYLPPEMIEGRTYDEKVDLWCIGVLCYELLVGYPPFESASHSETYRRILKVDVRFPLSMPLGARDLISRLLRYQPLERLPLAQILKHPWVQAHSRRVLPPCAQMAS

FLT3 (human) = FLT3 (human) (UniProt P36888)

LIMK1 (human), sequence (P53667 whole entry, looked up): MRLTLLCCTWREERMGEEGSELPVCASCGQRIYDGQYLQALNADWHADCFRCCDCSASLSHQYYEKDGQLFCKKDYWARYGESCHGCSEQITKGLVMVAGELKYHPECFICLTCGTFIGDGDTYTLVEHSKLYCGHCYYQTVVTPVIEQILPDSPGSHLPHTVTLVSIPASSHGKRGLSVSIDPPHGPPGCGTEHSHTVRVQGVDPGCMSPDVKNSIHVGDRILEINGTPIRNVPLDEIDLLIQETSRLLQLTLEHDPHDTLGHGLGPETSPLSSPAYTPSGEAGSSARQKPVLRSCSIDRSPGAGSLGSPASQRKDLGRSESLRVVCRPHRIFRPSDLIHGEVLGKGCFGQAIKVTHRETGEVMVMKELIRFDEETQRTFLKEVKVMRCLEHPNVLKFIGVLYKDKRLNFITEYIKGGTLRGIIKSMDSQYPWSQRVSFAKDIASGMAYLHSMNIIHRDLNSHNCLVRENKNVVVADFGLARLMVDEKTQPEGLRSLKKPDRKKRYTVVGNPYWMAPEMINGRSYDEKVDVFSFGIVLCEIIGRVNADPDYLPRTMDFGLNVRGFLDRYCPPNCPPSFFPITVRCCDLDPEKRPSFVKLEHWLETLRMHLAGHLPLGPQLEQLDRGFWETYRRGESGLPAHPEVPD

**Q.** What does the source list for CCc1nc(-c2ccc(OC)cc2)[nH]c1-c1ccncc1?
**A.** residual activity (LIMK1 (human)): 94.9%; residual activity (TXK (human)): 100%; residual activity (INSR (human)): 85%; residual activity (BMX (human)): 93.4%; residual activity (CSNK2A1 (human)): 95.3%; residual activity (PRKCE (human)): 101%; residual activity (FGFR1 (human)): 88.1%; residual activity (GSK3A (human)): 99.1%; residual activity (ITK (human)): 97.4%; residual activity (BRSK2 (human)): 105%; residual activity (PRKACA (human)): 100%; residual activity (CDK2 CCNE1 (human)): 93.7%; residual activity (PHKG1 (human)): 97%; residual activity (MAP2K2 (human)): 105%; residual activity (MAPK10 (human)): 100%; residual activity (SRPK2 (human)): 101%; residual activity (STK4 (human)): 106%; residual activity (NEK2 (human)): 100%; residual activity (MAP4K5 (human)): 106%; residual activity (WNK3 (human)): 97.3%; residual activity (MARK1 (human)): 99.2%; residual activity (NTRK2 (human)): 105%; residual activity [1]: 104%; residual activity (GSG2 (human)): 55.9%; residual activity (STK3 (human)): 104%; residual activity (MAP2K1 (human)): 97.8%; residual activity (NTRK3 (human)): 103%; residual activity (RPS6KA6 KD1 KD2 (human)): 111%; residual activity (CSNK2A2 (human)): 95.3%; residual activity (DMPK (human)): 102%; residual activity (CDK1 CCNA2 (human)): 91.8%; residual activity (MAP3K9 (human)): 88.1%; residual activity (CDK7 CCNH MNAT1 (human)): 97.3%; residual activity (EPHA1 (human)): 116%; residual activity (BLK (human)): 105%; residual activity (DYRK3 (human)): 95.5%; residual activity (CSNK1G3 (human)): 106%; residual activity (EPHA2 (human)): 102%; residual activity (RPS6KA4 KD2 (human)): 98.6%; residual activity (PTK2B (human)): 94.6%; residual activity (AURKC (human)): 97.4%; residual activity (FLT3 (human)): 91.4%

**Q.** Which results are given for c1ccc(-c2cnc(Nc3ccc(OCCN4CCCC4)cc3)s2)cc1?
**A.** residual activity (LIMK1 (human)): 66.9%; residual activity (TXK (human)): 91.1%; residual activity (INSR (human)): 95%; residual activity (BMX (human)): 84.5%; residual activity (CSNK2A1 (human)): 90.7%; residual activity (PRKCE (human)): 90.5%; residual activity (FGFR1 (human)): 75.4%; residual activity (GSK3A (human)): 99.2%; residual activity (ITK (human)): 85.2%; residual activity (BRSK2 (human)): 79.3%; residual activity (PRKACA (human)): 102%; residual activity (CDK2 CCNE1 (human)): 85.7%; residual activity (PHKG1 (human)): 45.5%; residual activity (MAP2K2 (human)): 90.2%; residual activity (MAPK10 (human)): 92.9%; residual activity (SRPK2 (human)): 103%; residual activity (STK4 (human)): 102%; residual activity (NEK2 (human)): 90.6%; residual activity (MAP4K5 (human)): 72.5%; residual activity (WNK3 (human)): 99%; residual activity (MARK1 (human)): 90.1%; residual activity (NTRK2 (human)): 50.4%; residual activity [1]: 83.6%; residual activity (GSG2 (human)): 106%; residual activity (STK3 (human)): 108%; residual activity (MAP2K1 (human)): 96.9%; residual activity (NTRK3 (human)): 22.6%; residual activity (RPS6KA6 KD1 KD2 (human)): 94.5%; residual activity (CSNK2A2 (human)): 92.1%; residual activity (DMPK (human)): 110%; residual activity (CDK1 CCNA2 (human)): 95.2%; residual activity (MAP3K9 (human)): 94.3%; residual activity (CDK7 CCNH MNAT1 (human)): 102%; residual activity (EPHA1 (human)): 85.3%; residual activity (BLK (human)): 92%; residual activity (DYRK3 (human)): 106%; residual activity (CSNK1G3 (human)): 91.8%; residual activity (EPHA2 (human)): 108%; residual activity (RPS6KA4 KD2 (human)): 96.1%; residual activity (PTK2B (human)): 77.2%; residual activity (AURKC (human)): 94.9%; residual activity (FLT3 (human)): 3.1%

**Q.** Which residual activity (LIMK1 (human)) does the source give for FC(F)(F)c1ccc(/C=C/c2nc(COc3ccc(CCCCn4ccnn4)cc3)co2)cc1 here?
**A.** 99.2%

**Q.** What about the residual activity (TXK (human)) of the same molecule?
**A.** 101%

**Q.** And the residual activity (INSR (human))?
**A.** 99.6%

**Q.** What about the residual activity (BMX (human)) of the same molecule?
**A.** 99%

**Q.** And the residual activity (CSNK2A1 (human))?
**A.** 97.5%

**Q.** What about the residual activity (PRKCE (human)) of the same molecule?
**A.** 101%

**Q.** What about the residual activity (FGFR1 (human)) of the same molecule?
**A.** 101%

**Q.** What about the residual activity (GSK3A (human)) of the same molecule?
**A.** 102%

**Q.** And the residual activity (ITK (human))?
**A.** 102%

**Q.** And the residual activity (BRSK2 (human))?
**A.** 99.6%

**Q.** And the residual activity (PRKACA (human))?
**A.** 101%

**Q.** And the residual activity (CDK2 CCNE1 (human))?
**A.** 96.3%

**Q.** What about the residual activity (PHKG1 (human)) of the same molecule?
**A.** 92.9%

**Q.** And the residual activity (MAP2K2 (human))?
**A.** 114%

**Q.** And the residual activity (MAPK10 (human))?
**A.** 94.6%

**Q.** And the residual activity (SRPK2 (human))?
**A.** 101%

**Q.** And the residual activity (STK4 (human))?
**A.** 97.5%

**Q.** What about the residual activity (NEK2 (human)) of the same molecule?
**A.** 96.2%

**Q.** And the residual activity (MAP4K5 (human))?
**A.** 96.5%

**Q.** What about the residual activity (WNK3 (human)) of the same molecule?
**A.** 98.5%

**Q.** What about the residual activity (MARK1 (human)) of the same molecule?
**A.** 102%

**Q.** And the residual activity (NTRK2 (human))?
**A.** 102%

**Q.** And the residual activity [1]?
**A.** 102%

**Q.** And the residual activity (GSG2 (human))?
**A.** 105%

**Q.** What about the residual activity (STK3 (human)) of the same molecule?
**A.** 95.5%

**Q.** And the residual activity (MAP2K1 (human))?
**A.** 120%

**Q.** And the residual activity (NTRK3 (human))?
**A.** 98.9%

**Q.** And the residual activity (RPS6KA6 KD1 KD2 (human))?
**A.** 100%

**Q.** And the residual activity (CSNK2A2 (human))?
**A.** 102%

**Q.** What about the residual activity (DMPK (human)) of the same molecule?
**A.** 101%

**Q.** And the residual activity (CDK1 CCNA2 (human))?
**A.** 92.6%

**Q.** And the residual activity (MAP3K9 (human))?
**A.** 105%

**Q.** And the residual activity (CDK7 CCNH MNAT1 (human))?
**A.** 107%

**Q.** What about the residual activity (EPHA1 (human)) of the same molecule?
**A.** 97.2%

**Q.** What about the residual activity (BLK (human)) of the same molecule?
**A.** 102%

**Q.** What about the residual activity (DYRK3 (human)) of the same molecule?
**A.** 109%

**Q.** What about the residual activity (CSNK1G3 (human)) of the same molecule?
**A.** 96.7%

**Q.** What about the residual activity (EPHA2 (human)) of the same molecule?
**A.** 102%

**Q.** And the residual activity (RPS6KA4 KD2 (human))?
**A.** 105%

**Q.** What about the residual activity (PTK2B (human)) of the same molecule?
**A.** 103%

**Q.** And the residual activity (AURKC (human))?
**A.** 97.1%

**Q.** And the residual activity (FLT3 (human))?
**A.** 87.8%
